In the supplement of paper PMC11451515:

Test system: P12-Ichikawa
Assay: cell viability relative to DMSO control; higher = less cytotoxic
Conditions: 48 h
Summary of the method: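 In 1536-well plates, 5 μl of leukemia cells were seeded per well: 500 cells/well for NOMO1 or SEM and 1000 cells/well for P12-Ichikawa. Each line had first been adapted for at least four passages in each medium. Library compounds in DMSO were pin-dosed at 11 threefold concentrations between 47 μM and 0.79 nM, and CellTiter-Glo One luminescence was read after 48 h at 37°C. Viability is a per-plate percentage relative to DMSO wells, with cell-free wells as background.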

[1] = HPLM + 10% dialyzed FBS, 0.000781 µM
[2] = HPLM + 10% dialyzed FBS, 0.00234 µM
[3] = HPLM + 10% dialyzed FBS, 0.00702 µM
[4] = HPLM + 10% dialyzed FBS, 0.0211 µM
[5] = HPLM + 10% dialyzed FBS, 0.0632 µM
[6] = HPLM + 10% dialyzed FBS, 0.19 µM
[7] = HPLM + 10% dialyzed FBS, 0.569 µM
[8] = HPLM + 10% dialyzed FBS, 1.71 µM
[9] = HPLM + 10% dialyzed FBS, 5.12 µM
[10] = HPLM + 10% dialyzed FBS, 15.4 µM
[11] = HPLM + 10% dialyzed FBS, 46.1 µM
[12] = RPMI 5 mM glucose + 10% FBS, 0.000781 µM
[13] = RPMI 5 mM glucose + 10% FBS, 0.00234 µM
[14] = RPMI 5 mM glucose + 10% FBS, 0.00702 µM
[15] = RPMI 5 mM glucose + 10% FBS, 0.0211 µM
[16] = RPMI 5 mM glucose + 10% FBS, 0.0632 µM
[17] = RPMI 5 mM glucose + 10% FBS, 0.19 µM
[18] = RPMI 5 mM glucose + 10% FBS, 0.569 µM
[19] = RPMI 5 mM glucose + 10% FBS, 1.71 µM
[20] = RPMI 5 mM glucose + 10% FBS, 5.12 µM
[21] = RPMI 5 mM glucose + 10% FBS, 15.4 µM
[22] = RPMI 5 mM glucose + 10% FBS, 46.1 µM
[23] = RPMI 5 mM glucose + 10% dialyzed FBS, 0.000781 µM
[24] = RPMI 5 mM glucose + 10% dialyzed FBS, 0.00234 µM
[25] = RPMI 5 mM glucose + 10% dialyzed FBS, 0.00702 µM
[26] = RPMI 5 mM glucose + 10% dialyzed FBS, 0.0211 µM
[27] = RPMI 5 mM glucose + 10% dialyzed FBS, 0.0632 µM
[28] = RPMI 5 mM glucose + 10% dialyzed FBS, 0.19 µM
[29] = RPMI 5 mM glucose + 10% dialyzed FBS, 0.569 µM
[30] = RPMI 5 mM glucose + 10% dialyzed FBS, 1.71 µM
[31] = RPMI 5 mM glucose + 10% dialyzed FBS, 5.12 µM
[32] = RPMI 5 mM glucose + 10% dialyzed FBS, 15.4 µM
[33] = RPMI 5 mM glucose + 10% dialyzed FBS, 46.1 µM

Row | Structure (SMILES) | cell viability [1] [%] | cell viability [2] [%] | cell viability [3] [%] | cell viability [4] [%] | cell viability [5] [%] | cell viability [6] [%] | cell viability [7] [%] | cell viability [8] [%] | cell viability [9] [%] | cell viability [10] [%] | cell viability [11] [%] | cell viability [12] [%] | cell viability [13] [%] | cell viability [14] [%] | cell viability [15] [%] | cell viability [16] [%] | cell viability [17] [%] | cell viability [18] [%] | cell viability [19] [%] | cell viability [20] [%] | cell viability [21] [%] | cell viability [22] [%] | cell viability [23] [%] | cell viability [24] [%] | cell viability [25] [%] | cell viability [26] [%] | cell viability [27] [%] | cell viability [28] [%] | cell viability [29] [%] | cell viability [30] [%] | cell viability [31] [%] | cell viability [32] [%] | cell viability [33] [%]
1 | CC[C@H]1OC(=O)[C@H](C)[C@@H](O[C@H]2C[C@@](C)(OC)[C@@H](O)[C@H](C)O2)[C@H](C)[C@@H](O[C@@H]2O[C@H](C)C[C@H](N(C)C)[C@H]2O)[C@](C)(O)C[C@@H](C)/C(=N\OCOCCOC)[C@H](C)[C@@H](O)[C@]1(C)O | 92.4 | 96.1 | 93.5 | 90.4 | 102 | 87.8 | 87.3 | 82.9 | 86.4 | 76.9 | 77.3 | 81.3 | 85 | 84.9 | 88.3 | 94.3 | 76.8 | 72.4 | 73.1 | 82.3 | 82.4 | 79.6 | 89.2 | 90.1 | 90.2 | 91.6 | 112 | 72 | 61.3 | 85.2 | 81.9 | 71.5 | 94.3
2 | NC(=O)c1nnn(Cc2cc(Cl)c(C(=O)c3ccc(Cl)cc3)c(Cl)c2)c1N | – | – | – | – | – | – | – | – | – | – | – | 122 | 137 | 122 | 130 | 128 | 128 | 136 | 120 | 120 | 122 | 70.9 | 122 | 128 | 122 | 134 | 123 | 119 | 131 | 121 | 109 | 118 | 68
3 | CCC[C@H](Nc1nc(-c2ccc(NC(=O)NCC)c(OC)c2)ncc1C)c1cccnc1 | 114 | 115 | 117 | 120 | 22.3 | 11.4 | 9.4 | 8.46 | 7.94 | 7.62 | 6.68 | 125 | 137 | 123 | 136 | 21.8 | 12.7 | 11.7 | 8.52 | 8.89 | 7.34 | 6.34 | 120 | 125 | 122 | 124 | 29.6 | 18.1 | 17.2 | 10.4 | 11 | 10.1 | 7.87
4 | OC1=C(Cl)C=C(N\C2=C(\C(=O)NC2=O)C3=C(C=CC=C3)[N+]([O-])=O)C=C1 | 100 | 100 | 98.9 | 102 | 112 | 97.7 | 103 | 99.5 | 90.1 | 87.4 | 79.5 | 98.6 | 109 | 105 | 110 | 99.4 | 98.9 | 111 | 105 | 104 | 83.9 | 58.1 | 100 | 107 | 112 | 115 | 110 | 109 | 113 | 106 | 109 | 86.7 | 69.5
5 | CC1=CC/2=C(C=C1C)N(C[C@@H](O)[C@@H](O)[C@@H](O)CO)C/3=N/C(=O)NC(=O)C3=N2 | 118 | 123 | 117 | 116 | 120 | 129 | 113 | 109 | 115 | 103 | 107 | – | – | – | – | – | – | – | – | – | – | – | 122 | 122 | 121 | 132 | 123 | 121 | 118 | 113 | 108 | 105 | 102
6 | COc1ccc(-n2c(C)c([N+](=O)[O-])c3ccc(O)cc32)cc1 | – | – | – | – | – | – | – | – | – | – | – | 127 | 118 | 118 | 126 | 118 | 123 | 122 | 121 | 115 | 111 | 105 | 119 | 121 | 120 | 122 | 114 | 118 | 121 | 122 | 106 | 112 | 102
7 | Clc1ccc(C(c2ccccc2Cl)C(Cl)Cl)cc1 (stereo not given) | 113 | 119 | 116 | 112 | 118 | 119 | 107 | 110 | 103 | 95.4 | 91.6 | 122 | 118 | 116 | 109 | 119 | 107 | 104 | 116 | 106 | 103 | 94.4 | 122 | 120 | 109 | 112 | 116 | 107 | 106 | 106 | 103 | 99.6 | 97.2
8 | Cc1cc(/C=c2/sc3nc4ccccc4n3c2=O)c(C)n1-c1ccccc1 | 121 | 127 | 123 | 119 | 123 | 119 | 128 | 125 | 122 | 113 | 112 | – | – | – | – | – | – | – | – | – | – | – | 110 | 126 | 116 | 132 | 126 | 121 | 124 | 124 | 105 | 112 | 120
